Assay results as given in patent publication US8846698B2, “Pyrrolo[2,3-d]pyrimidine tropomysin-related kinase inhibitors” (Pfizer Limited, priority 2011, dated 2014).

Target: TRKA (Homo sapiens (Human), UniProt P04629)
Experiment: Isolated TRK enzyme assay (HTRF KinEASE-TK), TRKA
Type: biochemical
Settings: read-out: Trka enzyme (IC50)

TRKA, sequence (P04629 441-796): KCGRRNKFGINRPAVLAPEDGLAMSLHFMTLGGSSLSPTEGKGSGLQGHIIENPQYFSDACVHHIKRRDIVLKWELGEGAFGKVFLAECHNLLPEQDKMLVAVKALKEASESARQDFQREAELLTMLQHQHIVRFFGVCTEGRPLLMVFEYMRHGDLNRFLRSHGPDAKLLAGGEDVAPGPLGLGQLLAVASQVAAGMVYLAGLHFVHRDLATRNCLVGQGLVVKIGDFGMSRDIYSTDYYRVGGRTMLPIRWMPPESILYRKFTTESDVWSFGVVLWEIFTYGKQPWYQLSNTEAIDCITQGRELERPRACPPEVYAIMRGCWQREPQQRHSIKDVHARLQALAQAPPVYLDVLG

SMILES | IC50 [nM]
CC(CO)(CO)n1cc(C(=O)c2cncc(NC(=O)Cc3ccc(C#N)cc3)c2)c2cncnc21 [Example 232, 2-(4-Cyanophenyl)-N-[5-({7-[2-hydroxy-1-(hydroxymethyl)-1-methylethyl]-7H-pyrrolo[2,3-d]pyrimidin-5-yl}carbonyl)pyridin-3-yl]acetamide] | 274
CC(C)n1cc(C(=O)c2cncc(NC(=O)Cc3c[nH]c4ccccc34)c2)c2cncnc21 [Example 132, 2-(1H-indol-3-yl)-N-{5-[(7-isopropyl-7H-pyrrolo[2,3-d]pyrimidin-5-yl)carbonyl]pyridin-3-yl}acetamide] | 131
CC(C)n1cc(C(=O)c2c[nH]c(=O)c(NC(=O)Cn3cc(C(F)(F)F)nn3)c2)c2cncnc21 [Example 591, N-(2-oxo-5-{[7-(propan-2-yl)-7H-pyrrolo[2,3-d]pyrimidin-5-yl]carbonyl}-1,2-dihydropyridin-3-yl)-2-[4-(trifluoromethyl)-1H-1,2,3-triazol-1-yl]acetamide] | 142
CC(C)n1cc(C(=O)c2cncc(NC(=O)Cn3ncc4ccc([N+](=O)[O-])cc43)c2)c2cncnc21 [Example 123, N-{5-[(7-isopropyl-7H-pyrrolo[2,3-d]pyrimidin-5-yl)carbonyl]pyridin-3-yl}-2-(6-nitro-1H-indazol-1-yl)acetamide] | 143
COc1nc(C(=O)Nc2cncc(C(=O)c3cn(C(C)C)c4ncncc34)c2)cn2ccnc12 [Example 435, 8-Methoxy-imidazo[1,2-a]pyrazine-6-carboxylic acid [5-(7-isopropyl-7H-pyrrolo[2,3-d]pyrimidine-5-carbonyl)-pyridin-3-yl]amide] | 5490
O=C(Cc1ccc(C(F)(F)F)cc1)Nc1cncc(C(=O)c2cn(C(CO)CO)c3ncncc23)c1 [Example 273, N-(5-(7-(1,3-dihydroxypropan-2-yl)-7H-pyrrolo[2,3-d]pyrimidine-5-carbonyl)pyridin-3-yl)-2-(4-(trifluoromethyl)phenyl)acetamide] | 342
CC(C)n1cc(C(=O)c2cncc(NC(=O)c3cc4cnccc4[nH]3)c2)c2cncnc21 [Example 454, 1H-Pyrrolo[3,2-c]pyridine-2-carboxylic acid [5-(7-isopropyl-7H-pyrrolo[2,3-d]pyrimidine-5-carbonyl)-pyridin-3-yl]-amide] | 633
COCC(C)(C)n1cc(C(=O)c2cncc(NC(=O)Cn3cc(C(F)(F)F)nn3)c2)c2cnc(N)nc21 [Example 550, N-{5-[2-Amino-7-(2-methoxy-1,1-dimethyl-ethyl)-7H-pyrrolo[2,3-d]pyrimidine-5-carbonyl]-pyridin-3-yl}-2-(4-trifluoromethyl-[1,2,3]triazol-1-yl)-acetamide] | 16.1
CC(C)(CO)n1cc(C(=O)c2cncc(NC(=O)Cc3ccc(C#N)cn3)c2)c2cnc(N)nc21 [Example 351, N-{5-[2-Amino-7-(2-hydroxy-1,1-dimethyl-ethyl)-7H-pyrrolo[2,3-d]pyrimidine-5-carbonyl]-pyridin-3-yl}-2-(5-cyano-pyridin-2-yl)-acetamide] | 21.1
CC(C)(CO)n1cc(C(=O)c2cncc(NC(=O)Cc3ccc(C#N)cc3)c2)c2cnc(N)nc21 [Example 259, N-(5-{[2-amino-7-(2-hydroxy-1,1-dimethylethyl)-7H-pyrrolo[2,3-d]pyrimidin-5-yl]carbonyl}pyridin-3-yl)-2-(4-cyanophenyl)acetamide] | 8.62
CC(C)n1cc(C(=O)c2cncc(NC(=O)Cc3cn(Cc4ccccc4)nn3)c2)c2cncnc21 [Example 146, 2-(1-benzyl-1H-1,2,3-triazol-4-yl)-N-{5-[(7-isopropyl-7H-pyrrolo[2,3-d]pyrimidin-5-yl)carbonyl]pyridin-3-yl}acetamide] | 573
O=C(Cc1ccc2cccnc2c1)Nc1cncc(C(=O)c2cn(C3COC3)c3ncncc23)c1 [Example 222, N-{5-[(7-oxetan-3-yl-7H-pyrrolo[2,3-d]pyrimidin-5-yl)carbonyl]pyridin-3-yl}-2-quinolin-7-ylacetamide] | 692
CC(CO)(CO)n1cc(C(=O)c2cncc(NC(=O)Cn3ccc(C(F)(F)F)n3)c2)c2cncnc21 [Example 239, N-[5-({7-[2-hydroxy-1-(hydroxymethyl)-1-methylethyl]-7H-pyrrolo[2,3-d]pyrimidin-5-yl}carbonyl)pyridin-3-yl]-2-[3-(trifluoromethyl)-1H-pyrazol-1-yl]acetamide] | 22.6
CC(C)n1cc(C(=O)c2cncc(NC(=O)Cn3cc4cc(F)ccc4n3)c2)c2cncnc21 [Example 94, 2-(5-fluoro-2H-indazol-2-yl)-N-{5-[(7-isopropyl-7H-pyrrolo[2,3-d]pyrimidin-5-yl)carbonyl]pyridin-3-yl}acetamide] | 54.8
CC(C)n1cc(C(=O)c2cncc(NC(=O)c3ncoc3C3CC3)c2)c2cncnc21 [Example 385, 5-Cyclopropyl-oxazole-4-carboxylic acid [5-(7-isopropyl-7H-pyrrolo[2,3-d]pyrimidine-5-carbonyl)-pyridin-3-yl]-amide] | 81.6
Cn1cc(C(=O)c2cncc(NC(=O)Cc3cc(F)cc(F)c3F)c2)c2cncnc21 [Example 177, N-{5-[(7-methyl-7H-pyrrolo[2,3-d]pyrimidin-5-yl)carbonyl]pyridin-3-yl}-2-(2,3,5-trifluorophenyl)acetamide] | 3100

SMILES | IC50 [nM]
CC(C)(C)n1cc(C(=O)c2cncc(NC(=O)Cc3ccc(Cl)cc3)c2)c2cncnc21 [Example 545, N-[5-(7-tert-Butyl-7H-pyrrolo[2,3-d]pyrimidine-5-carbonyl)-pyridin-3-yl]-2-(4-chloro-phenyl)-acetamide] | 2.95
CC(C)n1cc(C(=O)c2cncc(NC(=O)c3nn(C)c4ccccc34)c2)c2cncnc21 [Example 382, 1-Methyl-1H-indazole-3-carboxylic acid [5-(7-isopropyl-7H-pyrrolo[2,3-d]pyrimidine-5-carbonyl)-pyridin-3-yl]-amide] | 45.7
CC(C)n1cc(C(=O)c2cncc(NC(=O)Cn3ncc4cccnc43)c2)c2cncnc21 [Example 102, N-{5-[(7-isopropyl-7H-pyrrolo[2,3-d]pyrimidin-5-yl)carbonyl]pyridin-3-yl}-2-(1H-pyrazolo[3,4-b]pyridin-1-yl)acetamide] | 42.9
CC(C)n1cc(C(=O)c2cncc(NC(=O)Cc3c[nH]c4ccc(Cl)cc34)c2)c2cncnc21 [Example 139, 2-(5-chloro-1H-indol-3-yl)-N-{5-[(7-isopropyl-7H-pyrrolo[2,3-d]pyrimidin-5-yl)carbonyl]pyridin-3-yl}acetamide] | 65.7
CC(C)n1cc(C(=O)c2cncc(NC(=O)Cc3cnccn3)c2)c2cncnc21 [Example 376, N-[5-(7-Isopropyl-7H-pyrrolo[2,3-d]pyrimidine-5-carbonyl)-pyridin-3-yl]-2-pyrazin-2-yl-acetamide] | 5100
CC(C)n1cc(C(=O)c2cncc(NC(=O)Cn3ccnc3-c3ccccc3)c2)c2cncnc21 [Example 370, N-[5-(7-Isopropyl-7H-pyrrolo[2,3-d]pyrimidine-5-carbonyl)-pyridin-3-yl]-2-(2-phenyl-imidazol-1-yl)-acetamide] | 3540
Cn1cc(C(=O)c2cncc(NC(=O)Cc3cc(F)cc(F)c3)c2)c2cncnc21 [Example 170, 2-(3,5-difluorophenyl)-N-{5-[(7-methyl-7H-pyrrolo[2,3-d]pyrimidin-5-yl)carbonyl]pyridin-3-yl}acetamide] | 3100
O=C(Cc1ccc(Cl)c(Cl)c1)Nc1cncc(C(=O)c2cn(C3COC3)c3ncncc23)c1 [Example 217, 2-(3,4-dichlorophenyl)-N-{5-[(7-oxetan-3-yl-7H-pyrrolo[2,3-d]pyrimidin-5-yl)carbonyl]pyridin-3-yl}acetamide] | 83.3
Cn1cc(C(=O)c2cncc(NC(=O)CCc3ccccc3)c2)c2cncnc21 [Example 329, N-{5-[(7-methyl-7H-pyrrolo[2,3-d]pyrimidin-5-yl)carbonyl]pyridin-3-yl}-3-phenylpropanamide] | 9810
CC(C)n1cc(C(=O)c2cncc(NC(=O)Cn3cc(C(F)(F)F)nn3)c2)c2cncnc21 [Example 106, N-{5-[(7-isopropyl-7H-pyrrolo[2,3-d]pyrimidin-5-yl)carbonyl]pyridin-3-yl}-2-[4-(trifluoromethyl)-1H-1,2,3-triazol-1-yl]acetamide] | 14.8
CC(C)(CO)n1cc(C(=O)c2cncc(NC(=O)Cn3cc(C(F)(F)F)ccc3=O)c2)c2cnc(N)nc21 [Example 559, N-{5-[2-Amino-7-(2-hydroxy-1,1-dimethyl-ethyl)-7H-pyrrolo[2,3-d]pyrimidine-5-carbonyl]-pyridin-3-yl}-2-(2-oxo-5-trifluoromethyl-2H-pyridin-1-yl)-acetamide] | 374
CC(C)n1cc(C(=O)c2cncc(NC(=O)c3ccc4nnnn4c3)c2)c2cncnc21 [Example 502, Tetrazolo[1,5-a]pyridine-6-carboxylic acid [5-(7-isopropyl-7H-pyrrolo[2,3-d]pyrimidine-5-carbonyl)-pyridin-3-yl]-amide] | 6280
CC(C)n1cc(C(=O)c2cncc(NC(=O)c3cccc(C(=O)C(F)(F)F)c3)c2)c2cncnc21 [Example 292, N-{5-[(7-isopropyl-7H-pyrrolo[2,3-d]pyrimidin-5-yl)carbonyl]pyridin-3-yl}-3-(trifluoroacetyl)benzamide] | 37.7
CC(C)n1cc(C(=O)c2cncc(NC(=O)Cc3ccc(C(F)(F)F)cc3)c2)c2cncnc21 [Example 67, N-{5-[(7-isopropyl-7H-pyrrolo[2,3-d]pyrimidin-5-yl)carbonyl]pyridin-3-yl}-2-[4-(trifluoromethyl)phenyl]acetamide] | 4.15
COc1ccc2c(ccn2CC(=O)Nc2cncc(C(=O)c3cn(C(C)C)c4ncncc34)c2)n1 [Example 129, N-{5-[(7-isopropyl-7H-pyrrolo[2,3-d]pyrimidin-5-yl)carbonyl]pyridin-3-yl}-2-(5-methoxy-1H-pyrrolo[3,2-b]pyridin-1-yl)acetamide] | 3860
CC(C)n1cc(C(=O)c2cncc(NC(=O)c3cnc4ccsc4c3)c2)c2cncnc21 [Example 414, Thieno[3,2-b]pyridine-6-carboxylic acid [5-(7-isopropyl-7H-pyrrolo[2,3-d]pyrimidine-5-carbonyl)-pyridin-3-yl]-amide] | 158
